{"source": "patent US20260265233A1", "about": "“BENZOTHIOPHENE DERIVATIVES AS RXFP1 AGONISTS” (BRISTOL-MYERS SQUIBB COMPANY, priority 2021, published 2026)", "target": "T1, human RXFP1 (Homo sapiens, UniProt Q9HBX9)", "T1 construct": "expressed in transfected cells", "T1 sequence (Q9HBX9 1-757)": "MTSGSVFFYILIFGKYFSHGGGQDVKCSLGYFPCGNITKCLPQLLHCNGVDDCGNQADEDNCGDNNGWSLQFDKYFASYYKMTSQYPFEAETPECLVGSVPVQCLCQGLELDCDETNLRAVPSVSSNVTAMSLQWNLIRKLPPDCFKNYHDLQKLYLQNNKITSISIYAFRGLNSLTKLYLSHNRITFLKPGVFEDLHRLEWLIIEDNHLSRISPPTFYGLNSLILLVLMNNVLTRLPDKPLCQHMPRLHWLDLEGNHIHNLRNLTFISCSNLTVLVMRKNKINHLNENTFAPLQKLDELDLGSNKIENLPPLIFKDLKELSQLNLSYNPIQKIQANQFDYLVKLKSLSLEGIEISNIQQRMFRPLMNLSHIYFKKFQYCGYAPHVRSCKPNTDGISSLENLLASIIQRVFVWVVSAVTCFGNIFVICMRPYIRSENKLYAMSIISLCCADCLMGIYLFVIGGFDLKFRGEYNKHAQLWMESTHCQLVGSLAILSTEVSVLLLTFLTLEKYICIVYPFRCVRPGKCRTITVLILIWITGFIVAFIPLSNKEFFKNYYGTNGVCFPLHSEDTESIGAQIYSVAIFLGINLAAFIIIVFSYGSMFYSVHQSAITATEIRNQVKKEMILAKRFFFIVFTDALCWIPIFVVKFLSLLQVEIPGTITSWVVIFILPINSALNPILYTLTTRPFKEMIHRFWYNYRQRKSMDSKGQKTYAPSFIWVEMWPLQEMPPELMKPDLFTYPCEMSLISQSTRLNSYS", "test": "hRXFP1 HEK293 cAMP assay (HTRF)", "assay_type": "cell-based", "conditions": "HEK293 cells stably expressing human RXFP1; 30 min at rt; intracellular cAMP by HTRF", "method_in_brief": "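Agonism is measured as cAMP by HTRF, quantified from a standard curve via the 665/590 nm ratio and fitted with a four-parameter logistic equation. Compounds (0.010 nM to 50 μM final, 2% DMSO) were applied for 30 min at rt to human RXFP1-expressing HEK293 cells in assay buffer containing 0.5 mM IBMX.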"}
{"smiles": "COc1ccc(C2=NOC3CNCC23)cc1C(=O)Nc1c(C(=O)Nc2ccc(F)c(C(F)(F)F)c2)sc2cc(C(F)(F)F)ccc12", "note": "(stereo not shown) [Example 247, N-(4-fluoro-3-(trifluoromethyl)phenyl)-3-(2-methoxy-5-(3a,5,6,6a-tetrahydro-4H-pyrrolo[3,4-d]isoxazol-3-yl)benzamido)-6-(trifluoromethyl) benzo[b] thiophene-2-carboxamide]", "values": [{"measurement": "EC50", "result": 531, "unit": "nM"}]}
{"smiles": "COc1ccc(C2=NOC3(CCOC3=O)C2)cc1C(=O)Nc1c(C(=O)Nc2ccc(F)c(C(F)(F)F)c2)sc2cc(C(F)(F)F)ccc12", "note": "(stereo not shown) [Example 251, N-(4-fluoro-3-(trifluoromethyl)phenyl)-3-(2-methoxy-5-(6-oxo-1,7-dioxa-2-azaspiro[4.4]non-2-en-3-yl)benzamido)-6-(trifluoromethyl) benzo[b] thiophene-2-carboxamide]", "values": [{"measurement": "EC50", "result": 222, "unit": "nM"}]}
{"smiles": "O=C(Nc1c(C(=O)Nc2ccc(F)c(C(F)(F)F)c2)sc2cc(C(F)(F)F)ccc12)c1cc(C2=NOC3COCC23)ccc1F", "note": "(stereo not shown) [Example 256, 3-(5-{3aH,4H,6H,6aH-furo[3,4-d][1,2]oxazol-3-yl}-2-fluorobenzamido)-N-[4-fluoro-3-(trifluoromethyl)phenyl]-6-(trifluoromethyl)-1-benzothiophene-2-carboxamide]", "values": [{"measurement": "EC50", "result": 239, "unit": "nM"}]}
{"smiles": "COc1ccc(C2=NOC3CC(NC(=O)C(C)(C)O)CC23)cc1C(=O)Nc1c(C(=O)Nc2ccc(F)c(C(F)(F)F)c2)sc2cc(C(F)(F)F)ccc12", "note": "(stereo not shown) [Example 260, N-[4-fluoro-3-(trifluoromethyl)phenyl]-3-{5-[5-(2-hydroxy-2-methyl-propanamido)-3aH,4H,5H,6H, 6aH-cyclopenta[d] [1,2]oxazol-3-yl]-2-methoxy-benzamido}-6-(trifluoromethyl)-1-benzothiophene-2-carboxamide]", "values": [{"measurement": "EC50", "result": 1310, "unit": "nM"}]}
{"smiles": "COc1ccc(C2=NOC3CC(NC(=O)CO)CC23)cc1C(=O)Nc1c(C(=O)Nc2ccc(F)c(C(F)(F)F)c2)sc2cc(C(F)(F)F)ccc12", "note": "(stereo not shown) [Example 261, N-[4-fluoro-3-(trifluoromethyl)phenyl]-3-{5-[5-(2-hydroxy-acetamido)-3aH,4H,5H,6H, 6aH-cyclopenta[d] [1,2]oxazol-3-yl]-2-methoxy-benzamido}-6-(trifluoromethyl)-1-benzothiophene-2-carboxamide]", "values": [{"measurement": "EC50", "result": 90.7, "unit": "nM"}]}
{"smiles": "COc1ccc(C2=NOC3(CCN(C(=O)C(C)(C)CO)CC3)C2)cc1C(=O)Nc1c(C(=O)Nc2ccc(F)c(C(F)(F)F)c2)sc2cc(C(F)(F)F)ccc12", "note": "[Example 269, N-(4-fluoro-3-(trifluoromethyl)phenyl)-3-(5-(8-(3-hydroxy-2,2-dimethyl-propanoyl)-1-oxa-2,8-diazaspiro[4.5]dec-2-en-3-yl)-2-methoxy-benzamido)-6-(trifluoromethyl) benzo[b] thiophene-2-carboxamide]", "values": [{"measurement": "EC50", "result": 737, "unit": "nM"}]}
{"smiles": "COc1ccc(C2=NOC3(CCN(C(=O)C(C)(C)O)CC3)C2)cc1C(=O)Nc1c(C(=O)Nc2ccc(F)c(C(F)(F)F)c2)sc2cc(C(F)(F)F)ccc12", "note": "[Example 270, N-(4-fluoro-3-(trifluoromethyl)phenyl)-3-(5-(8-(2-hydroxy-2-methylpropanoyl)-1-oxa-2,8-diazaspiro[4.5]dec-2-en-3-yl)-2-methoxy-benzamido)-6-(trifluoromethyl) benzo[b] thiophene-2-carboxamide]", "values": [{"measurement": "EC50", "result": 532, "unit": "nM"}]}
{"smiles": "COc1ccc(C2=NOC3(CCN(C(=O)CO)CC3)C2)cc1C(=O)Nc1c(C(=O)Nc2ccc(F)c(C(F)(F)F)c2)sc2cc(C(F)(F)F)ccc12", "note": "[Example 271, N-(4-fluoro-3-(trifluoromethyl)phenyl)-3-(5-(8-(2-hydroxyacetyl)-1-oxa-2,8-diazaspiro[4.5]dec-2-en-3-yl)-2-methoxy-benzamido)-6-(trifluoromethyl) benzo[b] thiophene-2-carboxamide]", "values": [{"measurement": "EC50", "result": 379, "unit": "nM"}]}
{"smiles": "COc1ccc(C2=NOC3(CCNCC3)C2)cc1C(=O)Nc1c(C(=O)Nc2ccc(F)c(C(F)(F)F)c2)sc2cc(C(F)(F)F)ccc12", "note": "[Example 272, N-(4-fluoro-3-(trifluoromethyl)phenyl)-3-(2-methoxy-5-(1-oxa-2,8-diazaspiro[4.5]dec-2-en-3-yl)benzamido)-6-(trifluoromethyl) benzo[b] thiophene-2-carboxamide]", "values": [{"measurement": "EC50", "result": 900, "unit": "nM"}]}
{"smiles": "COc1ccc(-c2cc(CN(C)C)on2)cc1C(=O)Nc1c(C(=O)Nc2ccc(F)c(C(F)(F)F)c2)sc2cc(C(F)(F)F)ccc12", "note": "[Example 273, 3-(5-(5-((dimethylamino)methyl)isoxazol-3-yl)-2-methoxy-benzamido)-N-(4-fluoro-3-(trifluoromethyl)phenyl)-6-(trifluoromethyl) benzo[b] thiophene-2-carboxamide]", "values": [{"measurement": "EC50", "result": 857, "unit": "nM"}]}
{"smiles": "COc1ccc(-c2noc(C(C)(C)CO)n2)cc1C(=O)Nc1c(C(=O)Nc2ccc(F)c(C(F)(F)F)c2)sc2cc(C(F)(F)F)ccc12", "note": "[Example 274, N-(4-fluoro-3-(trifluoromethyl)phenyl)-3-(5-(5-(1-hydroxy-2-methylpropan-2-yl)-1,2,4-oxadiazol-3-yl)-2-methoxy-benzamido)-6-(trifluoromethyl) benzo[b] thiophene-2-carboxamide]", "values": [{"measurement": "EC50", "result": 278, "unit": "nM"}]}
{"smiles": "COc1ccc(-c2cc([C@@H](C)O)on2)cc1C(=O)Nc1c(C(=O)Nc2ccc(F)c(C(F)(F)F)c2)sc2cc(C(F)(F)F)ccc12", "note": "[Example 275, (R)-N-(4-fluoro-3-(trifluoromethyl)phenyl)-3-(5-(5-(1-hydroxyethyl)isoxazol-3-yl)-2-methoxy-benzamido)-6-(trifluoromethyl) benzo[b] thiophene-2-carboxamide]", "values": [{"measurement": "EC50", "result": 440, "unit": "nM"}]}
{"smiles": "COc1ccc(-c2cc(C(C)(C)O)on2)cc1C(=O)Nc1c(C(=O)Nc2ccc(F)c(C(F)(F)F)c2)sc2cc(C(F)(F)F)ccc12", "note": "[Example 276, N-(4-fluoro-3-(trifluoromethyl)phenyl)-3-(5-(5-(2-hydroxypropan-2-yl)isoxazol-3-yl)-2-methoxy-benzamido)-6-(trifluoromethyl) benzo[b] thiophene-2-carboxamide]", "values": [{"measurement": "EC50", "result": 204, "unit": "nM"}]}
{"smiles": "COc1ccc(-c2nc(N3CCOCC3)no2)cc1C(=O)Nc1c(C(=O)Nc2ccc(F)c(C(F)(F)F)c2)sc2cc(C(F)(F)F)ccc12", "note": "[Example 277, N-[4-fluoro-3-(trifluoromethyl)phenyl]-3-{2-methoxy-5-[3-(morpholin-4-yl)-1,2,4-oxadiazol-5-yl]benzamido}-6-(trifluoromethyl)-1-benzothiophene-2-carboxamide]", "values": [{"measurement": "EC50", "result": 398, "unit": "nM"}]}
{"smiles": "COc1ccc(C2=NOC3(CCN(C(=O)CO)C3)C2)cc1C(=O)Nc1c(C(=O)Nc2ccc(F)c(C(F)(F)F)c2)sc2cc(C(F)(F)F)ccc12", "note": "(stereo not shown) [Example 278, N-[4-fluoro-3-(trifluoromethyl)phenyl]-3-{5-[7-(2-hydroxyacetyl)-1-oxa-2,7-diazaspiro[4.4]non-2-en-3-yl]-2-methoxy-benzamido}-6-(trifluoromethyl)-1-benzothiophene-2-carboxamide]", "values": [{"measurement": "EC50", "result": 408, "unit": "nM"}]}
{"smiles": "COc1ccc(C2=NOC3(CCN(C(=O)C(C)(C)O)C3)C2)cc1C(=O)Nc1c(C(=O)Nc2ccc(F)c(C(F)(F)F)c2)sc2cc(C(F)(F)F)ccc12", "note": "(stereo not shown) [Example 279, N-[4-fluoro-3-(trifluoromethyl)phenyl]-3-{5-[7-(2-hydroxy-2-methylpropanoyl)-1-oxa-2,7-diazaspiro[4.4]non-2-en-3-yl]-2-methoxy-benzamido}-6-(trifluoromethyl)-1-benzothiophene-2-carboxamide]", "values": [{"measurement": "EC50", "result": 582, "unit": "nM"}]}
{"smiles": "COc1ccc(C2=NC(C(=O)N3CC(C)(O)C3)CO2)cc1C(=O)Nc1c(C(=O)Nc2ccc(F)c(C(F)(F)F)c2)sc2cc(C(F)(F)F)ccc12", "note": "(stereo not shown) [Example 280, N-[4-fluoro-3-(trifluoromethyl)phenyl]-3-{5-[4-(3-hydroxy-3-methylazetidine-1-carbonyl)-4,5-dihydro-1,3-oxazol-2-yl]-2-methoxy-benzamido}-6-(trifluoromethyl)-1-benzothiophene-2-carboxamide]", "values": [{"measurement": "EC50", "result": 44.1, "unit": "nM"}]}
{"smiles": "COc1ccc(C2=NC(C(=O)N3CC(C(C)(C)O)C3)CO2)cc1C(=O)Nc1c(C(=O)Nc2ccc(F)c(C(F)(F)F)c2)sc2cc(C(F)(F)F)ccc12", "note": "(stereo not shown) [Example 281, N-[4-fluoro-3-(trifluoromethyl)phenyl]-3-(5-{4-[3-(2-hydroxypropan-2-yl)azetidine-1-carbonyl]-4,5-dihydro-1,3-oxazol-2-yl}-2-methoxy-benzamido)-6-(trifluoromethyl)-1-benzothiophene-2-carboxamide]", "values": [{"measurement": "EC50", "result": 95.1, "unit": "nM"}]}
{"smiles": "COc1ccc(C2=NC(C(=O)N3CC(CO)C3)CO2)cc1C(=O)Nc1c(C(=O)Nc2ccc(F)c(C(F)(F)F)c2)sc2cc(C(F)(F)F)ccc12", "note": "(stereo not shown) [Example 282, N-[4-fluoro-3-(trifluoromethyl)phenyl]-3-(5-{4-[3-(hydroxymethyl)azetidine-1-carbonyl]-4,5-dihydro-1,3-oxazol-2-yl}-2-methoxy-benzamido)-6-(trifluoromethyl)-1-benzothiophene-2-carboxamide]", "values": [{"measurement": "EC50", "result": 9.6, "unit": "nM"}]}
